Legend:
C57Bl6 mice = test: Cardiovascular radiotelemetry (heart rate, mean arterial pressure); type: in vivo, mouse; details: Glp1r AAV treated mice; 0.5, 1 and 3 nmol/kg SC; Figure 2H
From the text: Male C57Bl6 mice (8–10 weeks old) were anesthetized with isoflurane and surgically implanted with pressure transmitters (PA-C10, DSI), with the catheter inserted into the left carotid artery and the body of the transmitter between the outer skin layer and abdomen wall in the left flank of the mouse. After recovering, they were singly housed and monitored in their home cages. Mice were given control and experimental AAV virus via tail vein injections at least 7 days prior to CV study. Transmitters were turned on via magnets and SC vehicle injections were administered 2 h after the onset of the light phase for baseline measurements. At t = 24 h, mice were grouped if needed and SC compound injections began. Stressors were allowed only from 9:00 AM to 11:00 AM during the light phase, with continuous sampling throughout the day. Measurements of pulse pressure, arterial pressures, and heart rate values were extracted with the DataQuest A.R.T. 4.1 software and averaged into 3-hour bins for analysis.

[1] = Pharmacokinetic study in WT DIO mice dosed with control or Glp1r expressing AAV; type: in vivo, mouse; details: Glp1r AAV treated vs control groups; Figure 2K
Protocol: Male C57Bl6 mice were randomized and evenly distributed to test groups (n = 8 per group) according to body weight. Animals received tail vein injection of the control AAV or mGLP-1R expressing AAV at a dose of 10^12 GC per mouse on day −7 for each study. […] Treatments were administered via daily SC injection for the duration of the study; dosage is indicated within each figure. Dose escalation regimens for each peptide were determined based on previously published studies. Body weight and food intake was measured every other day throughout the study.

hGLP-1R = biological target: T1, hGLP-1R (Homo sapiens, UniProt P43220); details: cited from earlier work
T1 construct: expressed in transfected cells
From the text: Second, agonism of the ectopic, hepatic GLP-1R creates a novel mechanism of drug clearance and may have effects on biodistribution.

T1 sequence (P43220 24-463): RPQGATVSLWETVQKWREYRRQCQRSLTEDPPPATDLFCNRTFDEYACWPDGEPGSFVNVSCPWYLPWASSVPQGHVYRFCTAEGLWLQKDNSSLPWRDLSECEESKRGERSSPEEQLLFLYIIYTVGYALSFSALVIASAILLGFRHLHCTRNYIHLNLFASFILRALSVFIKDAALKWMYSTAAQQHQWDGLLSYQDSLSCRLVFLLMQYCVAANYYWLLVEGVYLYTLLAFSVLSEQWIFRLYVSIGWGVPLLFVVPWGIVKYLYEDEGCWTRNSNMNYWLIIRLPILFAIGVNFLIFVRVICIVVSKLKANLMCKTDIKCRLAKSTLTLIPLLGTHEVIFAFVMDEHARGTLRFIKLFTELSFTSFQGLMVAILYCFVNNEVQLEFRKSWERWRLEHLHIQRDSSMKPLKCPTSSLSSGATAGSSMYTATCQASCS

CC[C@H](C)[C@H](NC(=O)[C@H](Cc1ccccc1)NC(=O)[C@H](CCC(=O)O)NC(=O)[C@H](CCCCNC(=O)COCCOCCNC(=O)COCCOCCNC(=O)CC[C@H](NC(=O)CCCCCCCCCCCCCCCCC(=O)O)C(=O)O)NC(=O)[C@H](C)NC(=O)[C@H](C)NC(=O)[C@H](CCC(N)=O)NC(=O)CNC(=O)[C@H](CCC(=O)O)NC(=O)[C@H](CC(C)C)NC(=O)[C@H](Cc1ccc(O)cc1)NC(=O)[C@H](CO)NC(=O)[C@H](CO)NC(=O)[C@@H](NC(=O)[C@H](CC(=O)O)NC(=O)[C@H](CO)NC(=O)[C@@H](NC(=O)[C@H](Cc1ccccc1)NC(=O)[C@@H](NC(=O)CNC(=O)[C@H](CCC(=O)O)NC(=O)C(C)(C)NC(=O)[C@@H](N)Cc1cnc[nH]1)[C@@H](C)O)[C@@H](C)O)C(C)C)C(=O)N[C@@H](C)C(=O)N[C@@H](Cc1c[nH]c2ccccc12)C(=O)N[C@@H](CC(C)C)C(=O)N[C@H](C(=O)N[C@@H](CCCNC(=N)N)C(=O)NCC(=O)N[C@@H](CCCNC(=N)N)C(=O)NCC(=O)O)C(C)C [semaglutide]
Heart rate effect of semaglutide + Glp1r AAV (C57Bl6 mice): reduces this effect | semaglutide clearance with ectopic hepatic GLP-1R [1]: significant increase in semaglutide clearance

tirzepatide
GLP-1R internalization profile (hGLP-1R): low receptor internalising profile

From paper PMC12926979, “Ectopic, hepatic GLP-1R agonism enhances the weight loss efficacy of GLP-1 analogues” (Molecular Metabolism, 2026)
